# Experiments:
# M. tuberculosis P2SP1 = assay: Anti-mycobacterium in vitro activity, P2SP1; assay type: cell-based, Mycobacterium tuberculosis; settings: Multi-drug resistant strain; for MIC: Mycobacterium tuberculosis, P2SP1
# M. tuberculosis P1SP2 = assay: Anti-mycobacterium in vitro activity, P1SP2; assay type: cell-based, Mycobacterium tuberculosis; settings: Multi-drug resistant strain; for MIC: Mycobacterium tuberculosis, P1SP2
Compound,M. tuberculosis MIC P2SP1 (M. tuberculosis P2SP1) [µg/mL],M. tuberculosis MIC P1SP2 (M. tuberculosis P1SP2) [µg/mL],MIC (M. tuberculosis P2SP1) [µg/mL],MIC (M. tuberculosis P1SP2) [µg/mL]
"Oc1cccc2cccnc12 [Compound 10, 8-hydroxyquinoline]",0.387,0.387,,
"Oc1cccc2cccnc12 [Compound 50, 8-hydroxyquinoline]",0.387,0.387,,
"Oc1cccc2cccnc12 [Compound 51, 8-hydroxyquinoline]",0.387,0.387,,
"Oc1cccc2cccnc12 [Compound 53, 8-hydroxyquinoline]",0.775,0.387,,
"Oc1cccc2cccnc12 [Compound 55, 8-hydroxyquinoline]",0.775,0.387,,
"Oc1cccc2cccnc12 [Compound 65, 8-hydroxyquinoline]",0.775,0.775,,
"Oc1cccc2cccnc12 [Compound 72, 8-hydroxyquinoline]",0.775,0.775,,
"Oc1cccc2cccnc12 [Compound 75, 8-hydroxyquinoline]",0.775,0.775,,
CC[C@@H](CO)NCCN[C@@H](CC)CO [Ethambutol],,,8,8
CCc1cc(C(N)=S)ccn1 [Ethionamide],,,> 64,32
"NNC(=O)c1ccncc1 [Isoniazid (INH), Isoniazid]",,,> 8,> 8
NC[C@H]1O[C@H](O[C@H]2[C@H](O)[C@@H](O[C@H]3O[C@H](CO)[C@@H](O)[C@H](N)[C@H]3O)[C@H](N)C[C@@H]2N)[C@H](O)[C@@H](O)[C@@H]1O [Kanamycin],,,< 2,< 2
CC1COc2c(N3CCN(C)CC3)c(F)cc3c(=O)c(C(=O)O)cn1c23 (stereo not shown) [Ofloxacin],,,32,16
CO[C@H]1/C=C/O[C@@]2(C)Oc3c(C)c(O)c4c(O)c(c(/C=N/N5CCN(C)CC5)c(O)c4c3C2=O)NC(=O)/C(C)=C\C=C\[C@H](C)[C@H](O)[C@@H](C)[C@@H](O)[C@@H](C)[C@H](OC(C)=O)[C@@H]1C [Rifampicin],,,16,> 16
[H]/N=C(/N)N[C@H]1[C@H](O)[C@@H](O)[C@H](O[C@@H]2O[C@@H](C)[C@](O)(C=O)[C@H]2O[C@@H]2O[C@@H](CO)[C@H](O)[C@@H](O)[C@@H]2NC)[C@@H](N/C(N)=N\[H])[C@@H]1O [Streptomycin],,,< 2,< 2
N[C@@H]1CON=C1O [cycloserine],,,8,8
Nc1ccc(C(=O)O)c(O)c1 [p-aminosalicylate],32,16,,

# Source: patent publication US7390806B2, “Antibiotics containing borinic acid complexes and methods of use” (Anacor Pharmaceuticals, Inc., priority 2002, dated 2008)
